The record followed here is patent US20240124450A1, “Novel SIK Inhibitors” (Pfizer Inc., priority 2022, published 2024).

The target of one assay is SIK2 (Homo sapiens (Human), UniProt Q9H0K1). Kind of assay: Pan SIK MS IC50 enzyme assay (SIK2). Conditions: 1 mM ATP, substrate peptide AQT0252, LCMS/MS detection. The format is biochemical. On the procedure:
(§1) Enzyme Assay: Pan SIK MS IC50 Assay
(§2) Salt Induced Kinase (SIK) activity is determined by measuring the effect of a test agent on the activity of the appropriate SIK enzyme to phosphorylate its corresponding substrate. […] The phosphorylated substrate product resulting from the kinase reaction is detected by LCMS/MS, and the area under the peak curve correlates with kinase activity. […] The plates are spun at 1000 rpm for 30 seconds to ensure compounds are at the bottom of the well before removing foil covers. 0.15 μL HPE (assay std) and ZPE (DMSO) are added to the ARP using an HP D300 dispenser. Plates are spun again at 1000 rpm for 30 seconds. […] Plates are spun at 1000 rpm for 30 seconds. Plates are then sealed and incubated at RT for 10 minutes. Following incubation, 5 μL of 5× peptide reagent is added with a Multidrop Combi and designated small volume cassette to initiate the kinase reaction. Plates are spun at 1000 rpm for 30 seconds. Plates are then sealed and incubated at RT for 90 minutes. The assay is stopped by the addition of 5 μl of 120 mM EDTA added with a Multidrop Combi and designated small volume cassette (20 mM final concentration). Plates are spun at 1000 rpm for 30 seconds. 10 μl of the final reaction mix from each of the three individual enzyme plates are transferred by a Platemate Plus to the same corresponding 96 well deepwell plate containing 70 μl Water/Methanol (85/15%) for multiplex MS detection ([…]). Using Activity Base (ABase), an idbs data analysis software tool, the reported area ratio unit data is associated to compound, batch and dose information, the data is evaluated for quality, and the percent inhibition of each well is calculated. The data from each Max effect/HPE and Min effect/ZPE control wells are assessed, and outliers are excluded from all further calculations. The mean and standard deviation of the HPE and ZPE are then calculated for each plate, along with the Z Prime. The compound data is converted into % effect, using the average ZPE and HPE controls as 0% and 100% activity, respectively.

For assay [1], the system named is TNFα release from human monocyte derived macrophages stimulated with LPS. Kind of assay: SIK macrophage cytokine assay, inhibition of TNFα release. The format is cell-based. Particulars: 1 ng/mL LPS, 4 hours, HTRF, read-out: TNFa IC50. The procedure:
(§3) Cytokine Assays: SIK Macrophage Assay Cytokine activity is determined by measuring the effect of a test agent on the inhibitory release of the cytokine TNFα and the increasing release of the cytokine IL10 from human monocyte derived macrophages (human macrophages) stimulated with lipopolysaccharide (LPS). At the time of assay, human macrophages (CGPS group Pfizer Groton, CT) are removed from cryopreservation, thawed quickly at 37° C., diluted in thaw medium (OptiMEM—Gibco medium, 10% heat inactivated fetal bovine serum (HIFBS)), and then centrifuged at 200×g for 10 minutes. […] After ˜60 minutes in an incubator at 37° C. in a humidified environment in 5% carbon dioxide the cells are stimulated by the addition of 5 μL of LPS (10 ng/mL; Sigma) and the assay plate is returned to an incubator at 37° C. in a humidified environment in 5% carbon dioxide for 4 hours. […] The final concentration of DMSO in the assay is approximately 0.1%. After 4 hours, the assay plate is removed from the incubator and centrifuged at 1500 rpm for 10 minutes. A portion of the resulting cell supernatant is then used to determine the amount of IL-10 and TNFα in each well. Cytokine measurements are made using human IL-10 and TNFα HTRF assay kits (Perkin Elmer) following the manufacturer's assay protocol.

The subject of assay [2] is IL10 release from human monocyte derived macrophages stimulated with LPS. Put plainly: SIK macrophage cytokine assay, increase of IL10 release. The format is cell-based. Conditions: 1 ng/mL LPS, 4 hours, HTRF. The procedure:
as §3

The next assay deals with SIK1 (Homo sapiens (Human), UniProt P57059). Kind of assay: Pan SIK MS IC50 enzyme assay (SIK1). It counts as biochemical. Conditions: 1 mM ATP, substrate peptide AQT0868, LCMS/MS detection. On the procedure: as §1, §2
Chain of SIK1 (P57059 whole entry, species assumed): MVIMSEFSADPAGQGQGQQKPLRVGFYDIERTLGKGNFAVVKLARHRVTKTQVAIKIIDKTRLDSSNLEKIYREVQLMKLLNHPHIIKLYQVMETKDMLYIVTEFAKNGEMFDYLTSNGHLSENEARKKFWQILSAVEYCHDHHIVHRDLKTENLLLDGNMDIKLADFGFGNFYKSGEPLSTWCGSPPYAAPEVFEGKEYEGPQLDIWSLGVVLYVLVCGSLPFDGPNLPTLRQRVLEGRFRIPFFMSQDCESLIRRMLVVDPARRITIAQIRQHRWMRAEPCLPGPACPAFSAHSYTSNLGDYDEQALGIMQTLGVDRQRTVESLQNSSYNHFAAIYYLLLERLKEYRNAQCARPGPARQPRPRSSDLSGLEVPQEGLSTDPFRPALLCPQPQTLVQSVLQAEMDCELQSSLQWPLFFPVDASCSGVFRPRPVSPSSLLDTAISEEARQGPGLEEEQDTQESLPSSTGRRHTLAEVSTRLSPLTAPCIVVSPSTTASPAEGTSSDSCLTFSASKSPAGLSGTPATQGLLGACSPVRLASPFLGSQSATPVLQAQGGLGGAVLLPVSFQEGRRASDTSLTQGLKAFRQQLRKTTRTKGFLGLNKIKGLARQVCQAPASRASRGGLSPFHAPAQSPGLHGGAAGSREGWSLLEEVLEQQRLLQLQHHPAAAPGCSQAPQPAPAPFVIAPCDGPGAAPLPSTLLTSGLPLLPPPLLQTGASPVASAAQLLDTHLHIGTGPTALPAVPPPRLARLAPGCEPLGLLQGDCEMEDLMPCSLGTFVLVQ
The next assay concerns the target SIK3 (Homo sapiens (Human), UniProt Q9Y2K2). Kind of assay: Pan SIK MS IC50 enzyme assay (SIK3). It counts as biochemical. Particulars: 1 mM ATP, substrate peptide AQT0508, LCMS/MS detection. The procedure: as §1, §2

Like-named read-outs stand apart in the source and are kept apart here.

Chain of SIK3 (Q9Y2K2 whole entry, species assumed): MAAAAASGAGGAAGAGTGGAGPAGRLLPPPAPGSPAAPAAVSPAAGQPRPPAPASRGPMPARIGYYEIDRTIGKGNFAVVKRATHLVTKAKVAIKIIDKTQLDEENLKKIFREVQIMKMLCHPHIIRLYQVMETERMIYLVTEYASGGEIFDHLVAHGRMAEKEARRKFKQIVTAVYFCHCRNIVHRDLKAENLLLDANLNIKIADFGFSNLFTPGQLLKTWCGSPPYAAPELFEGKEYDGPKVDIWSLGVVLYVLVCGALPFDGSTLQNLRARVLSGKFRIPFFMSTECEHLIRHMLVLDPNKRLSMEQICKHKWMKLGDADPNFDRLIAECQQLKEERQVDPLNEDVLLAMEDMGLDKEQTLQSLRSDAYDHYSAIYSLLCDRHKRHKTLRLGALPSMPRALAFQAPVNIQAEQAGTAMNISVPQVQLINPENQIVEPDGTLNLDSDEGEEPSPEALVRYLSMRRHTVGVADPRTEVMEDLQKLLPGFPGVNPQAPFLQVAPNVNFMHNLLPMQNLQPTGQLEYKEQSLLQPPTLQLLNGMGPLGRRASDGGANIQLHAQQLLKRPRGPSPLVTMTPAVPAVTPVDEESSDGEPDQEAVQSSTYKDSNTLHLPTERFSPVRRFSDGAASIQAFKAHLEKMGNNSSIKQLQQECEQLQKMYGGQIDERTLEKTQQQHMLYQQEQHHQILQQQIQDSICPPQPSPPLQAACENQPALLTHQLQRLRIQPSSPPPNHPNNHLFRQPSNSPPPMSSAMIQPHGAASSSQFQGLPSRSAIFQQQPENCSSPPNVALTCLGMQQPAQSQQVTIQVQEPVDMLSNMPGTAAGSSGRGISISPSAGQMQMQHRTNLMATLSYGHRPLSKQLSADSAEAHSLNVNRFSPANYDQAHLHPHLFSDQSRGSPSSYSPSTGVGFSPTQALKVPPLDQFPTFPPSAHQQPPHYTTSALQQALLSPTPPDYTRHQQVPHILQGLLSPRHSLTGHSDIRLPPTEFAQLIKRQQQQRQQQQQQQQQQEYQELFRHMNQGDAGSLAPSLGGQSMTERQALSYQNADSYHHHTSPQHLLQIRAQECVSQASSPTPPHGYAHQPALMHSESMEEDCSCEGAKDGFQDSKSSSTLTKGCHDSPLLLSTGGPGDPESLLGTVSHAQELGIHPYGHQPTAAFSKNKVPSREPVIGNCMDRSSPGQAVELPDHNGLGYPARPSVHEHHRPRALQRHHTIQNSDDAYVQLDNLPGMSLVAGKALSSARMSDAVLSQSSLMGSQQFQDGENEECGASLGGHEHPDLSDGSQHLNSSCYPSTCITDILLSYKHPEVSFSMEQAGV
Chain of SIK2 (Q9H0K1 whole entry, species assumed): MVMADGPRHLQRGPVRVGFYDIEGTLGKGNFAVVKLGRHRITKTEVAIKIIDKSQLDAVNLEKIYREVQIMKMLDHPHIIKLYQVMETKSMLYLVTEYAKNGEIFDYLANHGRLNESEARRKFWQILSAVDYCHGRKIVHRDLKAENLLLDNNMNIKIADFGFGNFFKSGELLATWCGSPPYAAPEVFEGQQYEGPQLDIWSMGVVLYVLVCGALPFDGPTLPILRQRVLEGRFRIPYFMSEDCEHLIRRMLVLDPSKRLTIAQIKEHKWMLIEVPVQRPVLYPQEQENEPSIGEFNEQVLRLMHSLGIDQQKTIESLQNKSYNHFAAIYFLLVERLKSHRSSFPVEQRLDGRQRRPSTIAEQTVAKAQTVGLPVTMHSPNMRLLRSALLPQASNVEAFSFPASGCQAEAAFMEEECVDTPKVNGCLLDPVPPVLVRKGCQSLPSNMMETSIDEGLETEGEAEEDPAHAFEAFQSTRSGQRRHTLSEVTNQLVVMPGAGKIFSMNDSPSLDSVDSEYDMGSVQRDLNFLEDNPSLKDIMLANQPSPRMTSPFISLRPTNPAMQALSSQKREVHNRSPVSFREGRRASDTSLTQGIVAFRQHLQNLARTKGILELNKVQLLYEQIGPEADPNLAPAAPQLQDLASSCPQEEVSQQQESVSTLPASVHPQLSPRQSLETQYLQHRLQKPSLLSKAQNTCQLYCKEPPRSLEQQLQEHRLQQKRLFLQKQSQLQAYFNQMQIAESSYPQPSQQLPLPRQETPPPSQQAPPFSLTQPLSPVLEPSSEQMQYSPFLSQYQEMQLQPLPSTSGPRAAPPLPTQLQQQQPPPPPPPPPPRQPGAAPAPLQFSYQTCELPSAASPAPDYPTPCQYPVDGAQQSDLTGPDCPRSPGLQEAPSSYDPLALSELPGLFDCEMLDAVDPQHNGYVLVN

In the case of `CC[C@H]1CCC[C@]1(N)COc1cc(-c2cnc3cccc(OC)n23)cc(OC)c1C#N` [Example 2B, 2-(((1R,2S)-1-Amino-2-ethylcyclopentyl)methoxy)-6-methoxy-4-(5-methoxyimidazo[1,2-a]pyridin-3-yl)benzonitrile], the IC50 stood at 11.1 nM against SIK2, 271 nM in assay [1] (Macrophage), 12 nM against SIK1 and 71.3 nM against SIK3. Besides, the midpoint of the response in assay [2] (Macrophage), the EC50, lay at 570 nM.
Regarding `CCc1ccc2ncc(-c3cc(OCC4(N)CCCC4)c(C#N)c(SC)c3)n2c1C#N` [Example 44, 3-(3-((1-Aminocyclopentyl)methoxy)-4-cyano-5-(methylthio)phenyl)-6-ethylimidazo[1,2-a]pyridine-5-carbonitrile], the IC50 on SIK2 is 1.7 nM; in assay [1] (Macrophage) it was 21 nM; on SIK1 it was 2.3 nM; against SIK3 it was 2.1 nM. In assay [2] (Macrophage), this molecule showed an EC50 of 38 nM.
The matching figures for `CC[C@@H]1CCC[C@@]1(N)COc1cc(-c2cnc3cccc(C#N)n23)cc(SC)c1C#N` (racemic) [Example 7, 3-(3-(((1S,2R)-1-Amino-2-ethylcyclopentyl)methoxy)-4-cyano-5-(methylthio)phenyl)imidazo[1,2-a]pyridine-5-carbonitrile and 3-(3-(((1R,2S)-1-amino-2-ethylcyclopentyl)methoxy)-4-cyano-5-(methylthio)phenyl)imidazo[1,2-a]pyridine-5-carbonitrile]: 0.8 nM, 1.5 nM, 0.5 nM, 1.8 nM and 5 nM.
For `COc1cc(-c2cnc3ccc(N(C)C)c(C#N)n23)cc(OCC2(N)CCCC2)c1C#N` [Example 48, 3-(3-((1-Aminocyclopentyl)methoxy)-4-cyano-5-methoxyphenyl)-6-(dimethylamino)imidazo[1,2-a]pyridine-5-carbonitrile], the IC50 was 0.7 nM against SIK2, 0.8 nM in assay [1] (Macrophage), 0.4 nM against SIK1 and 1.7 nM at SIK3. This molecule also registered an EC50 in assay [2] (Macrophage) of 4 nM.
Turning to `CCC1CCC(N)(COc2cc(-c3cnc4cccc(OC)n34)cc(OC)c2C#N)C1` (stereo not shown) [Example 3, 2-((1-Amino-3-ethylcyclopentyl)methoxy)-6-methoxy-4-(5-methoxyimidazo[1,2-a]pyridin-3-yl)benzonitrile], the IC50 amounted to 2.1 nM on SIK2, 29.7 nM in assay [1] (Macrophage), 0.8 nM against SIK1 and 4.7 nM on SIK3. In assay [2] (Macrophage), this molecule yielded an EC50 of 92 nM.
As to `CSc1cc(-c2cnc3ccccn23)cc(OC[C@@]2(N)CCC[C@H](C(F)(F)F)C2)c1C#N.CSc1cc(-c2cnc3ccccn23)cc(OC[C@]2(N)CCC[C@@H](C(F)(F)F)C2)c1C#N` (mixture of isomers) [Example 33B, 2-(((1R,3S)-1-Amino-3-(trifluoromethyl)cyclohexyl)methoxy)-4-(imidazo[1,2-a]pyridin-3-yl)-6-(methylthio)benzonitrile and 2-(((1S,3R)-1-amino-3-(trifluoromethyl)cyclohexyl)methoxy)-4-(imidazo[1,2-a]pyridin-3-yl)-6-(methylthio)benzonitrile], the IC50 against SIK2 came out at 9.9 nM; in assay [1] it was 258 nM; against SIK1 it was 10.9 nM; against SIK3, 23.4 nM. The EC50 in assay [2] was 338 nM.
With `CSc1cc(-c2cnc3cccc(C#N)n23)cc(OCC2(N)CCCC2)c1C#N` [Example 36, 3-(3-((1-Aminocyclopentyl)methoxy)-4-cyano-5-(methylthio)phenyl)imidazo[1,2-a]pyridine-5-carbonitrile], the IC50 against SIK2 stood at 0.8 nM; in assay [1] (Macrophage) it was 4.8 nM; on SIK1 it was 1.2 nM; on SIK3, 2.1 nM. In assay [2] (Macrophage), the EC50 came out at 35 nM.
For `CSc1cc(-c2cnc3ccccn23)cc(OC[C@@]2(N)CCC(F)(F)C2)c1C#N` (mixture of isomers) [Example 25, (R)-2-((1-Amino-3,3-difluorocyclopentyl)methoxy)-4-(imidazo[1,2-a]pyridin-3-yl)-6-(methylthio)benzonitrile and (S)-2-((1-amino-3,3-difluorocyclopentyl)methoxy)-4-(imidazo[1,2-a]pyridin-3-yl)-6-(methylthio)benzonitrile], the IC50 was found to be 0.9 nM against SIK2, 15.6 nM in assay [1] (Macrophage), 2.3 nM against SIK1 and 5.3 nM on SIK3. This molecule had an EC50 in assay [2] (Macrophage) of 177 nM.
For the molecule `COc1cc(-c2cnc3cccc(OC)n23)cc(OCC2(N)CCCN(CC(F)(F)F)C2)c1C#N` (stereo not shown) [Example 21A], the IC50 against SIK2 turned out to be 1.1 nM; in assay [1], 19.6 nM; on SIK1 it was 1 nM; against SIK3, 4.4 nM. In assay [2], this molecule displayed an EC50 of 50 nM.
Regarding `CSc1cc(-c2cnc3ccc(N)c(C#N)n23)cc(OCC2(N)CCCC2)c1C#N` [Example 45, 6-Amino-3-(3-((1-aminocyclopentyl)methoxy)-4-cyano-5-(methylthio)phenyl)imidazo[1,2-a]pyridine-5-carbonitrile], the IC50 was found to be 0.2 nM against SIK2, 0.6 nM in assay [1] (Macrophage), 0.1 nM at SIK1 and 0.4 nM against SIK3. In assay [2] (Macrophage), the midpoint of the response, the EC50, lay at 3 nM.
`CCOC(=O)c1cc(C#N)n2c(-c3cc(OCC4(N)CCCC4)c(C#N)c(SC)c3)cnc2c1` [Example 38, Ethyl 3-(3-((1-aminocyclopentyl)methoxy)-4-cyano-5-(methylthio)phenyl)-5-cyanoimidazo[1,2-a]pyridine-7-carboxylate]: the IC50 is 1 nM on SIK2, 20.1 nM in assay [1] (Macrophage), 1.5 nM on SIK1 and 1.8 nM on SIK3. Besides, the EC50 in assay [2] (Macrophage) amounted to 51 nM.
With `CSc1cc(-c2cnc3ccc(N(C)C)c(C#N)n23)cc(OCC2(N)CCCC2)c1C#N` [Example 43, 3-(3-((1-Aminocyclopentyl)methoxy)-4-cyano-5-(methylthio)phenyl)-6-(dimethylamino)imidazo[1,2-a]pyridine-5-carbonitrile], the IC50 on SIK2 turned out to be 0.4 nM; in assay [1] (Macrophage), 0.6 nM; at SIK1, 0.2 nM; at SIK3, 1.1 nM. The EC50 in assay [2] (Macrophage) stood at 2 nM.
In the case of `COc1cccc2ncc(-c3cc(OCC4(N)CCCCC4)c(C#N)c(SC)c3)n12` [Example 29, 2-((1-Aminocyclohexyl)methoxy)-4-(5-methoxyimidazo[1,2-a]pyridin-3-yl)-6 (methylthio)benzonitrile], the IC50 against SIK2 is 2.9 nM; in assay [1] (Macrophage), 29.1 nM; on SIK1, 2.4 nM; on SIK3 it was 11.4 nM. Further, in assay [2] (Macrophage), a half-maximal effect (EC50) was put at 75 nM.
On to `CSc1cc(-c2cnc3ccc(N4CCCC4)c(C#N)n23)cc(OCC2(N)CCCC2)c1C#N` [Example 47, 3-(3-((1-Aminocyclopentyl)methoxy)-4-cyano-5-(methylthio)phenyl)-6-(pyrrolidin-1-yl)imidazo[1,2-a]pyridine-5-carbonitrile], for which the IC50 against SIK2 stood at 0.4 nM; in assay [1] (Macrophage), 1.4 nM; at SIK1, 0.2 nM; against SIK3 it was 0.9 nM. This molecule had an EC50 in assay [2] (Macrophage) of 6 nM.
